This is an account of results in patent US20170216251A1, “USE OF (+)-1-(3,4-DICHLOROPHENYL)-3-AZABICYCLO[3.1.0]HEXANE TO TREAT ADDICTIVE AND ALCOHOL-RELATED DISORDERS” (priority 2011, published 2017).

Data set [1] concerns alcohol-preferring (P) rat. Kind of data set: binge operant responding experiment in alcohol-preferring (P) rats. The format is in vivo. As for the experimental part: P rats were obtained from the Alcohol Research Center at Indiana University School of Medicine. Male P rats were used in all experiments, and were approximately 4-5 months of age and weighed between 420 and 580 g at the outset. Animals were housed individually at an ambient temperature of 21° C., with a normal 12 hour light/dark cycle. All rats were provided ad libitum access to food and water, except during training for operant self-administration studies, during which rats were fluid deprived 23 hr daily during the first 5 days of the training phase. Thereafter, these animals were maintained on ad libitum food and water. All training and experimental sessions for all subjects took place between 9 a.m. and 5 p.m. […] Deionized water was administered as the control injection. Behavioral testing was conducted in standard operant chambers (Coulbourn Instruments, Allentown, Pa.) equipped with two removable levers and two dipper fluid delivery systems enclosed in sound-attenuated cubicles as previously described (Cook et al., 2004). All dipper presentations provided a 1.5-sec access to a 0.1-ml dipper, followed by a 3-sec time out period. […] Responses and reinforcements were recorded and controlled using the 4.0 Coulbourn […] operant software package. […]

For data set [2], the system named is high-alcohol preferring (HAP) mouse. Kind of data set: binge operant responding experiment in high-alcohol preferring (HAP) mice. The format is in vivo. To be noted: intraperitoneal 25, 50 or 75 mg/kg, FIG. 2. The method, then: The efficacy of (+)-1-(3,4-dichlorophenyl)-3-azabicyclo[3.1.0]hexane to reduce alcohol-drinking behavior was evaluated in the genetically selected high-alcohol preferring (HAP) mouse, an animal model for human alcohol abuse. The effects of (+)-1-(3,4-dichlorophenyl)-3-azabicyclo[3.1.0]hexane on HAP mice were examined in a binge operant responding experiment, using standard protocols.
HAP mice were obtained from the Alcohol Research Center at Indiana University School of Medicine. Animals were housed individually at an ambient temperature of 21° C., with a normal 12 hour light/dark cycle. […]
Behavioral testing was conducted in standard operant chambers (Coulbourn Instruments, Allentown, Pa.) equipped with two removable levers and two dipper fluid delivery systems enclosed in sound-attenuated cubicles as previously described (Cook et al., 2004). […] Responses and reinforcements were recorded and controlled using the 4.0 Coulbourn L2T2 operant software package. […]
For the alcohol and sucrose maintained responding studies, (+)-1-(3,4-dichlorophenyl)-3-azabicyclo[3.1.0]hexane [25, 50, or 75 mg/kg] was injected into each HAP mouse, followed by immediate placement in an operant chamber. […] Six HAP mice were evaluated with each concentration of (+)-1-(3,4-dichlorophenyl)-3-azabicyclo[3.1.0]hexane [25, 50, or 75 mg/kg].

A further data set deals with kidney tubules. The settings on record: cynomolgus monkeys; Guha et al., 2011; cited from earlier work.
The target of a further data set is T1, serotonin transporter (Homo sapiens, UniProt P31645).
T1 construct: host or cells: in vivo brain (PET)
The settings on record: PET occupancy study at the doses examined; DeLorenzo et al., 2011; cited from earlier work.

The conditions of data set [3]: Phase II, compared to placebo; Sepracor Press Release 2009; cited from earlier work.
A further data set concerns Parkinson's Disease. The settings on record: Phase II clinical trial; Rascol et al., 2008; cited from earlier work.
The conditions of data set [4]: trial for use in weight loss; Astrup et al., 2008; cited from earlier work.
The conditions of data set [5]: patients with a preexisting cardiovascular condition, FDA News Release 2010, James et al.; cited from earlier work.

The structures appear in SMILES notation. “Also recorded” adds a separate entry of the source.

T1 sequence (P31645 whole entry): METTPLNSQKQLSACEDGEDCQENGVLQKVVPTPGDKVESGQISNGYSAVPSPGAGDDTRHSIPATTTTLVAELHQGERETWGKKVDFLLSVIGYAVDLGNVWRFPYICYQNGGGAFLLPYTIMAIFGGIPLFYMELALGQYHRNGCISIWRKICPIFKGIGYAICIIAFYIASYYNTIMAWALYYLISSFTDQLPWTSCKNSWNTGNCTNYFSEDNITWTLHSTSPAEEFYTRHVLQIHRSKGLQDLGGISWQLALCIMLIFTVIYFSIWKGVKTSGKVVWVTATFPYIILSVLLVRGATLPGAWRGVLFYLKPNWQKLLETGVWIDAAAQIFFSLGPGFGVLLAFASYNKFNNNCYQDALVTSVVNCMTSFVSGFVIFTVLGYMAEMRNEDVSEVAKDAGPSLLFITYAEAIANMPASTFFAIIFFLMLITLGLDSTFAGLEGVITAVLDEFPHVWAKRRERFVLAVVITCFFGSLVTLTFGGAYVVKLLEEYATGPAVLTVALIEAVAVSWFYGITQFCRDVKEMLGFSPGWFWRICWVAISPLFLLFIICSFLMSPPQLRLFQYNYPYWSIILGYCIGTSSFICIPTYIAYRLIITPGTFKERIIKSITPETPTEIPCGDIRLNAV

For `Clc1ccc([C@]23CNC[C@H]2C3)cc1Cl` [(+)-1-(3,4-dichlorophenyl)-3-azabicyclo[3.1.0]hexane], the “effect on sucrose consumption (sucrose maintained responding)” value in data set [1] (P rats maintained on sucrose water, oral 3.1-50 mg/kg, 90 min operant session, FIG. 1B) was “lack of effect”. Besides, in data set [1] (P rats, oral 3.1, 6.3, 12.5, 25 or 50 mg/kg 25 min before 90 min operant session, EtOH 10% v/v, FR4, FIG. 1A), the “effect on ethanol consumption (alcohol maintained responding)” value was “demonstrates a dose response; also recorded: decrease in alcohol consumption that was dose-dependent”. Besides, the “effect on sucrose consumption (control sucrose responding)” value in data set [2] (HAP mice maintained on sucrose water) is “lack of effect”. The “effect on alcohol consumption (ethanol responding)” value in data set [2] (HAP mice, 90 min operant session, EtOH 10% v/v, FR4) is on record as “demonstrates a dose response; also recorded: dose-dependent decrease in alcohol consumption”.

Turning to `CNC[C@H](c1ccc2ccccc2c1)[C@H](O)c1ccccc1` [PRC200-SS], in the data set with kidney tubules, the nephrotoxicity result is given as “acute degenerative damage of kidney tubules”.

On to `N[C@@H]1CC[C@@H](c2ccc(Cl)c(Cl)c2)c2ccccc21` [SEP-225289], for which the serotonin transporter occupancy entry at serotonin transporter is listed as “too low at the doses examined to produce an antidepressant effect”. The “primary efficacy endpoint as antidepressant” value in data set [3] is “did not meet the primary efficacy endpoint compared to placebo”.

With `CCOC[C@@H]1[C@@H](c2ccc(Cl)c(Cl)c2)C[C@@H]2CC[C@H]1N2C` [Tensofensine], in the data set on Parkinson's Disease, the “efficacy in treatment of Parkinson's Disease” value is “not be efficacious”. For the same compound, the adverse events result in data set [4] is “gastrointestinal adverse events (dry mouth, nausea, abdominal pain, constipation, diarrhea)”.

As for `CC(C)CC(N(C)C)C1(c2ccc(Cl)cc2)CCC1` (stereo not shown) [sibutramine], in data set [5], the “risk of serious heart events (non-fatal heart attack, non-fatal stroke)” value is “significant increase in the risk of serious heart events”.
